Results reported in patent US20230365592A1 (Agios Pharmaceuticals, Inc., priority 2022, published 2023).

biological target: T1, human PAH with the R408W mutation (Homo sapiens, UniProt P00439, R408W); experiment: Cell Based Phenylalanine Flux Assay; conditions: A375 cells expressing R408W PAH; 24 hrs with compound, then 20 µM sepiapterin and 800 µM 13C9,15N-Phenylalanine for 4 hours; 13C-Tyrosine by LC-MS; average where tested multiple times; read-out: AC50;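 also: after compound treatment, cells received sepiapterin plus isotope-labelled Phenylalanine for 4 hours, then labelled Tyrosine in the medium was quantified, 10-point 2-fold dilution series run in duplicate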
T1 construct: expressed in transfected cells
T1 sequence (P00439 1-452 R408W): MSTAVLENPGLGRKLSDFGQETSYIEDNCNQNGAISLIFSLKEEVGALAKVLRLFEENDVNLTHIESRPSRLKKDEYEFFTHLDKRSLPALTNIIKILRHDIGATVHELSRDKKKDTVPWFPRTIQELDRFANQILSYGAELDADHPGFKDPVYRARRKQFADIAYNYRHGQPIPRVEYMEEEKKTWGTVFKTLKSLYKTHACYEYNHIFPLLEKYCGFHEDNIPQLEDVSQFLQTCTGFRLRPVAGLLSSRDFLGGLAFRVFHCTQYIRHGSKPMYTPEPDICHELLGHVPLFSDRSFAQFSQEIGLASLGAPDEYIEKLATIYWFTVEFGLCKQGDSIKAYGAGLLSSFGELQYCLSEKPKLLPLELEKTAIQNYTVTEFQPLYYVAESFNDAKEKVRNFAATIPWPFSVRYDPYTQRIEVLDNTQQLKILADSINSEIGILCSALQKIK

Q: Which AC50 does the source give for `c1cc(C2CC2)c2cc(C3c4nc[nH]c4CCN3c3nnc(-c4cnccn4)o3)nn2c1` (centres unmarked) here?
A: 1 to 5 µM

Q: Which AC50 does the source give for `O=C(c1cnn2ccccc12)N1CCc2[nH]cnc2C1c1cc2cccc(C(F)(F)F)n2n1` (centres unmarked) here?
A: 1 to 5 µM

Q: `c1cncc(-c2nnc(N3CCc4[nH]cnc4C3c3cc4ccccn4n3)o2)c1` (centres unmarked) was tested. Which AC50 did it give?
A: > 5 µM

Q: How did the AC50 turn out when `O=C(CCc1nccs1)N1CCc2[nH]cnc2C1c1cc2ccccn2n1` (centres unmarked) was run?
A: 1 to 5 µM

same assay, conditions: A375 cells expressing human PAH R408W; 24 hrs compound incubation; 13C-Tyrosine by LC-MS; average where tested multiple times; read-out: AC50

Q: How did the AC50 turn out when `O=C(c1nc2ccccc2o1)N1CCc2[nH]cnc2[C@@H]1c1cc2c(F)cccn2n1` [Example 2051, (R)-benzo[d]oxazol-2-yl(4-(4-fluoropyrazolo[1,5-a]pyridin-2-yl)-1,4,6,7-tetrahydro-5H-imidazo[4,5-c]pyridin-5-yl)methanone] was run?
A: > 5 µM

Q: With `Fc1cccnc1-c1nnc(N2CCc3[nH]cnc3[C@@H]2c2cc3ccccn3n2)o1` [Example 2339, (R)-2-(3-fluoropyridin-2-yl)-5-(4-(pyrazolo[1,5-a]pyridin-2-yl)-1,4,6,7-tetrahydro-5H-imidazo[4,5-c]pyridin-5-yl)-1,3,4-oxadiazole] as the molecule, how does the AC50 read?
A: > 5 µM

Q: How did the AC50 turn out when `COc1cccn2nc([C@H]3c4nc[nH]c4CCN3C(=O)c3nnc(-c4cnn(C(F)F)c4)o3)cc12` [Example 2447, (R)-(5-(1-(difluoromethyl)-1H-pyrazol-4-yl)-1,3,4-oxadiazol-2-yl)(4-(4-methoxypyrazolo[1,5-a]pyridin-2-yl)-6,7-dihydro-1H-imidazo[4,5-c]pyridin-5(4H)-yl)methanone] was run?
A: > 5 µM

Q: Which AC50 does the source give for `CC(C)c1cccn2nc([C@H]3c4nc[nH]c4CCN3c3ccc(C(F)(F)F)cn3)cc12` [Example 2149, (R)-4-(4-isopropylpyrazolo[1,5-a]pyridin-2-yl)-5-(5-(trifluoromethyl)pyridin-2-yl)-4,5,6,7-tetrahydro-1H-imidazo[4,5-c]pyridine] here?
A: > 5 µM

Q: How did the AC50 turn out when `CC(C)(C)c1nnc(C(=O)N2CCc3[nH]cnc3[C@H]2c2cc3c(C4CC4)cccn3n2)o1` [Example 1840, (S)-(5-(tert-butyl)-1,3,4-oxadiazol-2-yl)(4-(4-cyclopropylpyrazolo[1,5-a]pyridin-2-yl)-1,4,6,7-tetrahydro-5H-imidazo[4,5-c]pyridin-5-yl)methanone] was run?
A: < 0.5 µM

same assay, conditions: A375 cells expressing human R408W PAH; 24 hrs compound incubation; 13C-Tyrosine by LC-MS; average where tested multiple times; read-out: AC50

Q: With `Cn1cc(-c2nnc(C(=O)N3CCc4[nH]cnc4[C@H]3c3cc4c(C(F)F)cccn4n3)o2)cn1` [Example 1316, (S)-(4-(4-(difluoromethyl)pyrazolo[1,5-a]pyridin-2-yl)-6,7-dihydro-1H-imidazo[4,5-c]pyridin-5(4H)-yl)(5-(1-methyl-1H-pyrazol-4-yl)-1,3,4-oxadiazol-2-yl)methanone] as the molecule, how does the AC50 read?
A: < 0.5 µM

Q: Which AC50 does the source give for `COc1cccn2nc([C@H]3c4nc[nH]c4CCN3C(=O)c3cc(C)nn3C)cc12` [Example 919, (R)-(1,3-dimethyl-1H-pyrazol-5-yl)(4-(4-methoxypyrazolo[1,5-a]pyridin-2-yl)-6,7-dihydro-1H-imidazo[4,5-c]pyridin-5(4H)-yl)methanone] here?
A: > 5 µM

Q: For `CC1(c2nnc(C(=O)N3CCc4[nH]cnc4[C@H]3c3cc4ccccn4n3)o2)CC1` [Example 1284, (S)-(5-(1-methylcyclopropyl)-1,3,4-oxadiazol-2-yl)(4-(pyrazolo[1,5-a]pyridin-2-yl)-6,7-dihydro-1H-imidazo[4,5-c]pyridin-5(4H)-yl)methanone], which AC50 is on record?
A: < 0.5 µM

Q: How did the AC50 turn out when `Cc1cccc2cc([C@@H]3c4nc[nH]c4CCN3C(=O)c3nnc(-c4cnn(C(F)F)c4)o3)nn12` [Example 914, (S)-(5-(1-(difluoromethyl)-1H-pyrazol-4-yl)-1,3,4-oxadiazol-2-yl)(4-(7-methylpyrazolo[1,5-a]pyridin-2-yl)-6,7-dihydro-1H-imidazo[4,5-c]pyridin-5(4H)-yl)methanone] was run?
A: 0.5 to 1 µM

Q: `CC(C)(F)c1nnc(C(=O)N2CCc3[nH]cnc3[C@@H]2c2cc3cccc(Cl)n3n2)o1` [Example 968, (R)-(4-(7-chloropyrazolo[1,5-a]pyridin-2-yl)-6,7-dihydro-1H-imidazo[4,5-c]pyridin-5(4H)-yl)(5-(2-fluoropropan-2-yl)-1,3,4-oxadiazol-2-yl)methanone] was tested. Which AC50 did it give?
A: 1 to 5 µM

Q: For `Cn1nc(Cl)nc1C(=O)N1CCc2[nH]cnc2[C@H]1c1cc2c(F)cccn2n1` [Example 762, (S)-(3-chloro-1-methyl-1H-1,2,4-triazol-5-yl)(4-(4-fluoropyrazolo[1,5-a]pyridin-2-yl)-6,7-dihydro-1H-imidazo[4,5-c]pyridin-5(4H)-yl)methanone], which AC50 is on record?
A: < 0.5 µM

Q: Which AC50 does the source give for `Cn1nccc1-c1nnc(C(=O)N2CCc3[nH]cnc3[C@@H]2c2cc3c(F)cccn3n2)o1` [Example 1019, (R)-(4-(4-fluoropyrazolo[1,5-a]pyridin-2-yl)-6,7-dihydro-1H-imidazo[4,5-c]pyridin-5(4H)-yl)(5-(1-methyl-1H-pyrazol-5-yl)-1,3,4-oxadiazol-2-yl)methanone] here?
A: > 5 µM

Q: `CC(C)(F)c1nnc(C(=O)N2CCc3[nH]cnc3[C@H]2c2cc3c(OC(F)(F)F)cccn3n2)o1` [Example 1726, (S)-(5-(2-fluoropropan-2-yl)-1,3,4-oxadiazol-2-yl)(4-(4-(trifluoromethoxy)pyrazolo[1,5-a]pyridin-2-yl)-6,7-dihydro-1H-imidazo[4,5-c]pyridin-5(4H)-yl)methanone] was tested. Which AC50 did it give?
A: 0.5 to 1 µM

Q: How did the AC50 turn out when `O=C(c1nnc(-c2ccn(C(F)F)n2)o1)N1CCc2[nH]cnc2[C@@H]1c1cc2c(F)cccn2n1` [Example 824, (R)-(5-(1-(difluoromethyl)-1H-pyrazol-3-yl)-1,3,4-oxadiazol-2-yl)(4-(4-fluoropyrazolo[1,5-a]pyridin-2-yl)-6,7-dihydro-1H-imidazo[4,5-c]pyridin-5(4H)-yl)methanone] was run?
A: > 5 µM

Q: With `O=C(c1nnc(-c2ncccc2F)o1)N1CCc2[nH]cnc2[C@H]1c1cc2c(OC(F)(F)F)cccn2n1` [Example 1679, (S)-(5-(3-fluoropyridin-2-yl)-1,3,4-oxadiazol-2-yl)(4-(4-(trifluoromethoxy)pyrazolo[1,5-a]pyridin-2-yl)-6,7-dihydro-1H-imidazo[4,5-c]pyridin-5(4H)-yl)methanone] as the molecule, how does the AC50 read?
A: < 0.5 µM

Q: Which AC50 does the source give for `Cc1cccc2cc([C@H]3c4nc[nH]c4CCN3C(=O)c3cnn4cc(N(C)C)ccc34)nn12` [Example 1795, (R)-(6-(dimethylamino)pyrazolo[1,5-a]pyridin-3-yl)(4-(7-methylpyrazolo[1,5-a]pyridin-2-yl)-6,7-dihydro-1H-imidazo[4,5-c]pyridin-5(4H)-yl)methanone] here?
A: > 5 µM

Q: With `Cc1cccc(-c2nnc(C(=O)N3CCc4[nH]cnc4[C@H]3c3cc4cccc(Cl)n4n3)o2)n1` [Example 1396, (S)-(4-(7-chloropyrazolo[1,5-a]pyridin-2-yl)-6,7-dihydro-1H-imidazo[4,5-c]pyridin-5(4H)-yl)(5-(6-methylpyridin-2-yl)-1,3,4-oxadiazol-2-yl)methanone] as the molecule, how does the AC50 read?
A: < 0.5 µM

Q: Which AC50 does the source give for `COc1cccn2nc([C@@H]3c4nc[nH]c4CCN3C(=O)c3nnc(-c4cnn(C)c4C)o3)cc12` [Example 1206, (S)-(5-(1,5-dimethyl-1H-pyrazol-4-yl)-1,3,4-oxadiazol-2-yl)(4-(4-methoxypyrazolo[1,5-a]pyridin-2-yl)-6,7-dihydro-1H-imidazo[4,5-c]pyridin-5(4H)-yl)methanone] here?
A: 0.5 to 1 µM

Q: `Cc1cccc2cc([C@@H]3c4nc[nH]c4CCN3C(=O)c3nnc(-c4ncccn4)o3)nn12` [Example 1337, (S)-(4-(7-methylpyrazolo[1,5-a]pyridin-2-yl)-6,7-dihydro-1H-imidazo[4,5-c]pyridin-5(4H)-yl)(5-(pyrimidin-2-yl)-1,3,4-oxadiazol-2-yl)methanone] was tested. Which AC50 did it give?
A: 0.5 to 1 µM
